{"source": "patent US20250213654A1", "about": "“PEPTIDES AND METHODS FOR USE IN TREATING PAIN” (TAFALGIE THERAPEUTICS, priority 2022, published 2025)", "key": {"[1]": {"tested_on": "Spared Nerve Injury (SNI) model of neuropathic pain", "test": "Spared Nerve Injury (SNI) model of neuropathic pain, Von Frey up-down mechanical threshold", "type": "in vivo, mice", "conditions": "SNI day 14, per os, 30 μg/mL solution in HPMC vehicle; peptides significant as soon as 1 hour (p value<0.01)"}, "[2]": {"tested_on": "injury-induced mechanical hypersensitivity", "conditions": "cited from earlier work"}, "[3]": {"tested_on": "spinal lamina II interneurons", "conditions": "spinal lamina II interneurons (WO2014180853); cited from earlier work"}}, "data": [{"substance": "TAFA4 FL: human TAFA-4 full length mature protein (SEQ ID NO: 5) of 105 amino acid residues", "values": [{"measurement": "antalgic effect (reversal of mechanical threshold)", "setting": "[1]", "value": "did not show significant antalgic effect"}, {"measurement": "effect on prolonged nerve injury-induced mechanical hypersensitivity of TAFA-4 gene deleted mice", "setting": "[2]; intrathecal injection (Delfini et al., 2013)", "value": "reversed"}, {"measurement": "effect on mechanical hypersensitivity", "setting": "[2]; male and female mice, intrathecal and subcutaneous administration (WO2014180853)", "value": "reverses inflammatory, postoperative and nerve injury-induced mechanical hypersensitivity"}, {"measurement": "effect on nerve injury-induced neuronal sensitization", "setting": "[3]", "value": "can reverse nerve injury-induced neuronal sensitization of the spinal lamina II interneurons"}]}]}
